These results are taken from the SangsterLogP compilation.

A word on the logP: it is a log measure of how a compound divides between an organic and an aqueous phase.

The first series can be described thus: method code SF-AS, from DOI: 10.1021/jf00085a044.
The compound `CN(C)C(=O)Nc1ccc(Oc2nnn(C3CCCCC3)n2)cc1` showed a logP of 2.67.

For the compound `CN(C)C(=O)Nc1ccc(Oc2nnn(CCC#N)n2)cc1`, the logP stood at 0.28.

The compound `CCOC(=O)Cn1nnnc1Oc1ccc(NC(=O)N(C)C)cc1` came in with a logP of 0.7.

Consider `CN(C)C(=O)Nc1ccc(Oc2nnn(C(C)(C)C)n2)cc1`, for which the logP came to 2.08.

`CCn1nnnc1Oc1ccc(NC(=O)N(C)C)cc1Cl` displayed a logP of 1.5.

Regarding `CN(C)C(=O)Nc1ccc(Oc2nnnn2C2CCCCC2)cc1`, the logP came out at 2.18.

In the case of `CCCCCCCCn1nnnc1Oc1ccc(NC(=O)N(C)C)cc1`, the log partition coefficient (logP) amounted to 3.96.

Compound `CN(C)C(=O)Nc1ccc(Oc2nnn(C)n2)cc1` returned a logP of 0.63.

`CCn1nnc(Oc2ccc(NC(=O)N(C)C)cc2)n1` gave a logP of 1.1.

Test in the next series: not given
Regarding `CN(C)C(=O)Nc1ccc(Oc2nnnn2C(C)(C)C)c(Cl)c1`, the logP is 2.25.

For `C=CCn1nnc(Oc2ccc(NC(=O)N(C)C)cc2)n1`, the logP turned out to be 1.65.

Consider `CN(C)C(=O)Nc1ccc(Oc2nnn(Cc3ccccc3)n2)cc1`, for which the logP is 2.25.

Regarding `C=CCn1nnnc1Oc1ccc(NC(=O)N(C)C)cc1`, the logP is 1.

The compound `CCCCCCCCn1nnc(Oc2ccc(NC(=O)N(C)C)cc2)n1` gave a logP of 4.4.

Compound `C#CCn1nnc(Oc2ccc(NC(=O)N(C)C)cc2)n1` came in with a logP of 1.65.

For the compound `CN(C)C(=O)Nc1ccc(Oc2nnnn2C(C)(C)C)cc1`, the logP was determined as 1.65.

`CN(C)C(=O)Nc1ccc(Oc2nnnn2Cc2ccccc2)cc1` came in with a logP of 1.7.

`CC(C)n1nnc(Oc2ccc(NC(=O)N(C)C)cc2)n1` gave a logP of 1.45.

Regarding `CCn1nnc(Oc2ccc(NC(=O)N(C)C)cc2Cl)n1`, the logP worked out at 1.7.

On to `C#CCn1nnnc1Oc1ccc(NC(=O)N(C)C)cc1`, for which the logP was found to be 1.
